Data reported in PMC8822125, “RW-BP100-4D, a Promising Antimicrobial Candidate With Broad-Spectrum Bactericidal Activity” (Frontiers in Microbiology, 2022).
≈ marks a conversion by molar mass, not a printed value. Where “and” joins values, the source holds several entries; their conditions need not be identical. Equal values may be shown once. Where a SMILES comes first, the peptide text is derived from it.

How the values were obtained:
MAC-T cells = settings: peptide 150 μg/mL, 24 h, WST-1, mean ± SD, three repeats
Escherichia coli 47EC = Escherichia coli 47EC (tet(X4)); mean of three repeated experiments
Escherichia coli O157:H7 = test: MIC/MBC, broth microdilution; type: cell-based; settings: mean of three repeated experiments
[1] = tested on: Listeria monocytogenes ATCC19115; settings: mean of three repeated experiments
Method: (§1) To compare the antibacterial activity of RW-BP100 and its serial derivatives, the MIC against S. aureus ATCC29213 and E. coli ATCC25922 were determined using broth microdilution method according to the guidelines of Clinical and Laboratory Standards Institute (CLSI) M100-S25 ([CLSI, 2015]). Briefly, peptides were dissolved in sterilized water and twofold diluted in Mueller-Hinton (MH) broth (Beijing Land Bridge Technology) at the concentration ranges of 0.098–100 μg/mL. Then the peptides were mixed with an equal volume (100 μL) of bacterial suspensions of 10^6 CFU/mL in a sterilized 96-well microtiter plate. […] To further evaluate the antimicrobial spectrum of RW-BP100-4D, MICs were determined against a more variety of Gram-positive and Gram-negative bacterial species, and the fungal strains (according to CLSI M38 guideline). […] MIC and MBC testing were performed with three independent repeats.

[2] = tested on: Shewanella putrefaction ATCC49138; settings: mean of three repeated experiments
Method: as §1

[3] = tested on: Pseudomonas fluorescens AC04; settings: mean of three repeated experiments
Method: as §1

[4] = tested on: Acinetobacter baumannii 34AB; settings: Acinetobacter baumannii 34AB (tet(X3)); mean of three repeated experiments
Method: as §1

[5] = tested on: Salmonella enterica ATCC13076; settings: mean of three repeated experiments
Method: as §1

[6] = tested on: Streptococcus agalactiae ATCC13813; settings: mean of three repeated experiments
Method: as §1

[7] = tested on: Staphylococcus epidermidis ATCC29887; settings: mean of three repeated experiments
Method: as §1

[8] = tested on: Klebsiella pneumoniae XG-Kpn03; settings: Klebsiella pneumoniae XG-Kpn03 (blaNDM-5); mean of three repeated experiments
Method: as §1

[9] = tested on: Enterococcus faecalis JH2-2; settings: mean of three repeated experiments
Method: as §1

Escherichia coli XG-E1 = Escherichia coli XG-E1 (blaNDM-5, mcr-1); mean of three repeated experiments
Method: as §1

[10] = tested on: Pseudomonas aeruginosa 42; settings: mean of three repeated experiments
Method: as §1

[11] = tested on: Campylobacter jejuni ATCC33291; settings: mean of three repeated experiments
Method: as §1

Enterococcus faecalis 32 = Enterococcus faecalis 32 (optrA); mean of three repeated experiments
Method: as §1

[12] = tested on: Listeria monocytogenes LM08; settings: Listeria monocytogenes LM08 (tetM); mean of three repeated experiments
Method: as §1

sheep red blood cells = sheep red blood cells in PBS, 37°C, 1 h, OD576, relative to melittin, mean ± SD, three repeats;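 also: hemolysis expressed in % from supernatant absorbance, with PBS-treated cells as 0% baseline and melittin as 100%, peptide mixed 1:1 with an 8% v/v erythrocyte suspension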
[13] = tested on: Staphylococcus aureus ATCC29213; test: MIC/MBC, broth microdilution; type: cell-based
[14] = 100 μg/mL in PBS, 1 h
[15] = tested on: Escherichia coli ATCC25922
Fusarium oxysporum LD21 = test: MIC/MBC, broth microdilution (CLSI M38); type: cell-based
in vitro = settings: calf serum
various microorganisms = test: MIC/MBC, summary statements over several strains; type: cell-based
[16] = tested on: Candida albicans ATCC10231; test: MIC/MBC, broth microdilution (CLSI M38); type: cell-based
papain = papain (Carica papaya, UniProt P00784); settings: 100 μg/mL peptide, papain 1 mg/mL, 37°C, 1 h; decrease of HPLC peak area (C8, UV 220 nm)
[17] = tested on: Staphylococcus aureus ATCC33591; settings: Staphylococcus aureus ATCC33591 (mecA); mean of three repeated experiments
[18] = tested on: E. coli ATCC25922, S. aureus ATCC29213, and C. albicans ATCC10231; test: Stress stability, fold change of MIC against the three reference strains; type: cell-based; settings: proteinase K 1 mg/mL, 37°C, 1 h
trypsin = test: in vitro
[19] = Table 1, broth microdilution CLSI M100-S25, MH broth, 37°C, 18 h, three independent repeats
[20] = CLSI M38, mean of three repeated experiments
[21] = mean of three repeated experiments

Sequence of papain (P00784 134-345): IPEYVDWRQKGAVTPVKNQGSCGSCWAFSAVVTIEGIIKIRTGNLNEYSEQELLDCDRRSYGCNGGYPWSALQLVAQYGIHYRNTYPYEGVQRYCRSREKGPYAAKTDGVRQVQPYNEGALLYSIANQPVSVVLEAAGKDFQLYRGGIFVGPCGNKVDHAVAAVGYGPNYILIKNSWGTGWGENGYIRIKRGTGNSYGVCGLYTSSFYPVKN

With `CC[C@H](C)[C@H](NC(=O)[C@H](CCCNC(=N)N)NC(=O)[C@H](CCCNC(=N)N)NC(=O)[C@@H](Cc1ccccc1)NC(=O)[C@H](CC(C)C)NC(=O)[C@H](CCCNC(=N)N)NC(=O)[C@@H](N)CCCNC(=N)N)C(=O)N[C@@H](CC(C)C)C(=O)N[C@@H](CCCNC(=N)N)C(=O)N[C@@H](Cc1c[nH]c2ccccc12)C(=O)N[C@@H](CC(C)C)C(N)=O` [RW-BP100-4D] (HELM PEPTIDE1{R.R.L.[dF].R.R.I.L.R.W.L.[am]}$$$$V2.0) the “Cell survival rate, MAC-T” value (MAC-T cells) was 92.68 ± 3.65%, the MBC of peptides (Escherichia coli 47EC) was 12 µg/mL and the MIC of peptides (Escherichia coli 47EC) was 3 µg/mL and 6 µg/mL. For the same molecule, the MBC of peptides (Escherichia coli O157:H7) was 6 µg/mL, the MIC of peptides (Escherichia coli O157:H7) was 3 µg/mL and the MBC of peptides [1] was 6 µg/mL. The MIC of peptides [1] was 3 µg/mL, the MBC of peptides [2] was 12 µg/mL and the MIC of peptides [2] was 6 µg/mL. For the same molecule, the MBC of peptides [3] was 12 µg/mL, the MIC of peptides [3] was 6 µg/mL and the MBC of peptides [4] was 12 µg/mL. It also gave an MIC of peptides [4] of 6 µg/mL, an MBC of peptides [5] of 6 µg/mL and an MIC of peptides [5] of 3 µg/mL. It also gave an MBC of peptides [6] of 6 µg/mL, an MIC of peptides [6] of 3 µg/mL and an MBC of peptides [7] of 6 µg/mL. For the same molecule, the MIC of peptides [7] was 3 µg/mL, the MBC of peptides [8] was 50 µg/mL and the MIC of peptides [8] was 25 µg/mL. It also gave an MBC of peptides [9] of 50 µg/mL, an MIC of peptides [9] of 12 µg/mL and an MBC of peptides (Escherichia coli XG-E1) of 6 µg/mL. It also gave an MIC of peptides (Escherichia coli XG-E1) of 3 µg/mL, an MBC of peptides [10] of 50 µg/mL and an MIC of peptides [10] of 12 µg/mL. The MBC of peptides [11] was 12 µg/mL, the MIC of peptides [11] was 6 µg/mL and the MBC of peptides (Enterococcus faecalis 32) was 50 µg/mL. For the same molecule, the MIC of peptides (Enterococcus faecalis 32) was 12 µg/mL, the MBC of peptides [12] was 6 µg/mL and the MIC of peptides [12] was 3 µg/mL. For the same molecule, the “Hemolytic rate, 50 μg/mL” value (sheep red blood cells; 50 μg/mL peptide) was 0.11 ± 0.19%, the “Hemolytic rate, 100 μg/mL” value (sheep red blood cells; 100 μg/mL peptide) was 3.69 ± 0.01% and the “Hemolytic rate, 150 μg/mL” value (sheep red blood cells; 150 μg/mL peptide) was 18.75 ± 0.42%. The “Hemolytic rate, 300 μg/mL” value (sheep red blood cells; 300 μg/mL peptide) was 48.55 ± 2.53%, the “MIC Staphylococcus aureus ATCC29213” value [13, 19] was 3 µg/mL (≈ 1.89 µM) and the MIC of peptides ([13]; Table 2, Staphylococcus aureus ATCC29213, mean of three repeated experiments) was 6 µg/mL and 3 µg/mL. The “Degradation, 40-80 ℃” value ([14]; pH 7, 40-80 ℃, decrease of HPLC peak area (C8, UV 220 nm) of native peptide) was 0%, the “Degradation, 90 ℃” value ([14]; pH 7, 90 ℃, decrease of HPLC peak area (C8, UV 220 nm)) was 56% and the “Degradation, 100 ℃” value ([14]; pH 7, 100 ℃, decrease of HPLC peak area (C8, UV 220 nm)) was 82%. The MBC of peptides ([15]; Escherichia coli ACTT25922, mean of three repeated experiments) was 12 µg/mL, the “MIC Escherichia coli ATCC25922” value [15, 19] was 6 µg/mL (≈ 3.79 µM) and the MIC of peptides ([15]; Table 2, Escherichia coli ACTT25922, mean of three repeated experiments) was 6 µg/mL. The MIC of peptides (Fusarium oxysporum LD21; [20]) was 12 µg/mL, the MBC of peptides (Fusarium oxysporum LD21; [21]) was 25 µg/mL and the metabolised at 1 h, 100 μg/mL (in vitro) was > 90%. For the same molecule, the “MICs against the selected Gram-negative bacterial isolates” value (various microorganisms; E. coli, Salmonella enterica, K. pneumoniae, C. jejuni, A. baumannii, Pseudomonas spp., S. putrefaction, range over strains) was 3 to 25 µg/mL, the “MIC against S. aureus ATCC29213 and E. coli ATCC25922 (both strains together)” value (various microorganisms; summary of Table 1) was 3 to 12 µg/mL and the MIC of peptides [16, 20] was 12 µg/mL. The MBC of peptides [16, 21] was 25 µg/mL, the “Degradation, papain” value (papain) was >90% and the MBC of peptides [17] was 6 µg/mL. The MIC of peptides [17] was 6 µg/mL and 3 µg/mL, the “MICs after treatment with proteinase K, fold of the original level” value [18] was 4–8 fold and the metabolised at 1 h, 100 μg/mL (trypsin) was > 90%.
